Results on one molecule are retold here after US10883083B2, “Tissue-engineered three-dimensional model for tumor analysis” (The Trustees of Columbia University in the City of New York, priority 2013, dated 2021).

The structures appear in SMILES notation.

The test relates to ES cells (SK-N-MC) in Col 1-HA scaffold. Nature of the test: Blebbistatin treatment of bioengineered tumor: cell morphology and exosome size (NTA). It counts as cell-based, human. As to conditions: blebbistatin-treated vs untreated controls, 3D setting. How it is done: To seed 3D Collagen 1-HA scaffolds, single-cell suspension of SK-N-MC cells was adjusted to the cell concentration of 1×10^6 cells/mL in a 50 ml Falcon tube. A total of 15 scaffolds were added to 30 mL of cell suspension, and the Falcon was set onto a rotary platform for 3 hours at 37° C./5% CO2. Cell seeded scaffolds were then transferred to non-treated wells in 12-multiwell plates (Nunc) and cultured in 2 mL of medium at 37° C./5% CO2. Cell numbers and were determined by Quant-iT PicoGreen dsDNA Assay Kit (Life technologies) according to the manufacturer's instructions. Exosome isolation and size analysis: Cells cultured in monolayers, aggregates and 3D scaffolds were washed with PBS twice and cultured in EMEM supplemented with 10% (v/v) Exosome-depleted FBS (SBI) and 1% penicillin/streptomycin for 12 h. The supernatants were collected and exosomes were isolated from cell culture media using the total exosome isolation kit (Invitrogen), according to the manufacturer's protocol. Exosomes from plasma samples were also isolated using the total exosome isolation kit (Invitrogen). The size distributions of exosomes were determined by Nanoparticle Tracking Analysis (NTA) using the Nanosight machine. To probe a possible mechanism underlying the observed effects of the tumor environment on exosome size, we modified the tension forces within the cells.

Regarding `Cc1ccc2c(c1)C(=O)C1(O)CCN(c3ccccc3)C1=N2` (centres unmarked) [Blebbistatin], the “Cell morphology / cell aggregates” value is given as “partial disassembly of cell aggregates” and the Exosome size distribution entry is given as “shift of the exosome size distribution curve to higher values”.
